# Assay results published in ChEMBL document CHEMBL4024712, “Synthesis, stability and mechanistic studies of potent anticryptococcal hexapeptides” (Eur J Med Chem, 2017).
# Activity calls are given as the source filed them. The calls are words filed in the database; no cut-off is given here. Non-standard residues stand in square brackets, D forms with d. Residues, ends and D or L forms follow the SMILES beside them. Phe(4-Me) = Cc1ccc(C[C@H](N)C(=O)O)cc1; Orn = NCCC[C@H](N)C(=O)O
# Tests used:
# Cryptococcus neoformans [1] = test: Induction of cell lysis in Cryptococcus neoformans ATCC 90113 biofilm assessed as formation of pits at MIC after 1 hr by photungstic acid/ammonium molybdate/uranyl acetatebased scanning based transmission electron microscopic method; format: functional
# Pichia kudriavzevii [2] = test: Fungicidal activity against Candida krusei ATCC 6258 after 18 to 24 hrs by Alamar blue assay; format: functional
# Staphylococcus aureus [3] = test: Anti-bacterial activity against methicillin-resistant Staphylococcus aureus ATCC 33591 by CLSI method; format: functional; conditions: Staphylococcus aureus, ATCC 33591; read-out: IC50
# Pichia kudriavzevii [4] = test: Antifungal activity against Candida krusei ATCC 6258 after 18 to 24 hrs by Alamar blue assay; format: functional; conditions: Pichia kudriavzevii, ATCC 6258
# Lipid bilayer [5] = test: Binding affinity to EYPC/EYPG small unilamellar vesicles at 0.1 uM by tryptophan fluorescence quenching assay
# [6] = tested on: Mycobacterium intracellulare; test: Anti-bacterial activity against Mycobacterium intracellulare ATCC 23068 after 68 to 72 hrs by Alamar blue assay; format: functional, cell-based
# Nakaseomyces glabratus = test: Antifungal activity against Candida glabrata ATCC 90030 after 18 to 24 hrs by Alamar blue assay; format: functional
# Vero = test: Cytotoxicity against African green monkey Vero cells up to 10 ug/ml after 48 hrs by neutral red dye based assay; format: cell-based; conditions: chlorocebus sabaeus
# Cryptococcus neoformans [7] = test: Fungicidal activity against Cryptococcus neoformans ATCC 90113 after 68 to 72 hrs by Alamar blue assay; format: functional
# Lipid bilayer [8] = test: Binding affinity to EYPC/cholesterol small unilamellar vesicles at 0.1 uM by tryptophan fluorescence quenching assay; format: ADME
# [9] = Selectivity index ratio of cytotoxic concentration against African green monkey Vero cells to IC50 for Cryptococcus neoformans ATCC 90113; format: toxicity; conditions: read-out: Selectivity Index
# Escherichia coli [10] = test: Anti-bacterial activity against Escherichia coli ATCC 35218 by CLSI method; format: functional; conditions: Escherichia coli, ATCC 35218
# Lipid bilayer [11] = test: Disruption of EYPC/EYPG small unilamellar vesicles assessed as lysed liposomes at 0.5 ug/ml by phosphotungstic acid staining based transmission electron microscopic method
# Candida albicans = test: Antifungal activity against Candida albicans ATCC 90028 after 18 to 24 hrs by Alamar blue assay; format: functional
# Staphylococcus aureus [12] = test: Anti-bacterial activity against Staphylococcus aureus ATCC 29213 by CLSI method; format: functional; conditions: Staphylococcus aureus, ATCC 29213; read-out: IC50
# [13] = Proteolytic stability assessed as trypsin (unknown origin)-mediated compound hydrolysis at compound to trypsin ratio of 0.5 to […] measured after 24 hrs by RP-HPLC method; format: ADME; conditions: human
# Aspergillus fumigatus = test: Antifungal activity against Aspergillus fumigatus ATCC 90906 after 68 to 72 hrs by Alamar blue assay; format: functional
# Cryptococcus neoformans [14] = test: Antifungal activity against Cryptococcus neoformans ATCC 90113 after 68 to 72 hrs by Alamar blue assay; format: functional
# Lipid bilayer [15] = test: Disruption of EYPC/cholesterol small unilamellar vesicles at 0.5 ug/ml by phosphotungstic acid staining based transmission electron microscopic method; format: ADME
# Cryptococcus neoformans [16] = test: Induction of cell lysis in Cryptococcus neoformans ATCC 90113 biofilm assessed as formation of holes at MIC after 1 hr by osmium tetroxide staining based scanning electron microscopic method; format: functional
# Pseudomonas aeruginosa = test: Anti-bacterial activity against Pseudomonas aeruginosa ATCC 27853 by CLSI method; format: functional; conditions: Pseudomonas aeruginosa, ATCC 27853; read-out: IC50
# Escherichia coli [17] = test: Bactericidal activity against Escherichia coli ATCC 35218 by CLSI method; format: functional
# Lipid bilayer [18] = test: Disruption of EYPC/EYPG small unilamellar vesicles assessed as disfigured liposomes at 0.5 ug/ml by phosphotungstic acid staining based transmission electron microscopic method
smiles,measurement,setting,value
Cc1ccc(C[C@H](NC(=O)[C@@H](Cc2ccccc2)NC(=O)[C@@H](Cc2c[nH]c3ccccc23)NC(=O)[C@@H](N)CCCN)C(=O)N[C@H](Cc2ccccc2)C(=O)N[C@H](CCCCN)C(N)=O)cc1 (H-[Orn][dW][dF][Phe(4-Me)][dF][dK]-NH2),Activity,Cryptococcus neoformans [1],Active
same,MFC,Pichia kudriavzevii [2],20 µg/mL
same,IC50,Staphylococcus aureus [3],> 20 µg/mL
same,MIC,Pichia kudriavzevii [4],20 µg/mL
same,IC50,Pichia kudriavzevii [4]; read-out: IC50,12.1 µg/mL
same,Activity,Lipid bilayer [5],Active
same,IC50,[6],Not Active
same,IC50,Nakaseomyces glabratus,Not Active
same,Activity,Vero,Non-Toxic
same,MFC,Cryptococcus neoformans [7],0.63 µg/mL
same,Activity,Lipid bilayer [8],Non-Toxic
same,selectivity ratio,[9],21 to 25
same,MIC,Escherichia coli [10],20 µg/mL
same,IC50,Escherichia coli [10]; read-out: IC50,8.2 µg/mL
same,Activity,Lipid bilayer [11],Active
same,IC50,Candida albicans,Not Active
same,IC50,Staphylococcus aureus [12],> 20 µg/mL
same,Stability,[13],Stable
same,IC50,Aspergillus fumigatus,Not Active
same,IC50,Cryptococcus neoformans [14],0.4 µg/mL
same,MIC,Cryptococcus neoformans [14],0.63 µg/mL
same,Activity,Lipid bilayer [15],Non-Toxic
same,Activity,Cryptococcus neoformans [16],Active
same,IC50,Pseudomonas aeruginosa,20 µg/mL
same,MBC,Escherichia coli [17],20 µg/mL
same,Activity,Lipid bilayer [18],Active
